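48-hour exposure; five concentrations; linearly interpolated endpoints. Here, GI50 denotes the concentration required for 50% inhibition of growth.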 The source made the active and inactive calls. No stated cut-off is given here; in the data, active = GI50 up to about 1.1 µM and inactive = higher.
Legend:
Assay in all cases: inhibition of tumour cell growth, NCI panel, 48 h
KM12 = system: KM12
Hs-578T = system: Hs-578T
MOLT-4 = system: MOLT-4
HOP-92 = system: HOP-92
MCF7 = system: MCF7
SN12C = system: SN12C
SNB-75 = system: SNB-75
U-251 = system: U-251
SK-OV-3 = system: SK-OV-3
SR = system: SR
SF-539 = system: SF-539
CAKI-1 = system: CAKI-1
NCI-H460 = system: NCI-H460
MDA-MB-231 = system: MDA-MB-231
HCT-15 = system: HCT-15
HT-29 = system: HT-29
ACHN = system: ACHN
Malme-3M = system: Malme-3M
HL-60 = system: HL-60
UACC-257 = system: UACC-257

| SMILES | GI50 (KM12) | GI50 (Hs-578T) | GI50 (MOLT-4) | GI50 (HOP-92) | GI50 (MCF7) | GI50 (SN12C) | GI50 (SNB-75) | GI50 (U-251) | GI50 (SK-OV-3) | GI50 (SR) | GI50 (SF-539) | GI50 (CAKI-1) | GI50 (NCI-H460) | GI50 (MDA-MB-231) | GI50 (HCT-15) [µM] | GI50 (HT-29) | GI50 (ACHN) | GI50 (Malme-3M) | GI50 (HL-60) | GI50 (UACC-257) |
| --- | --- | --- | --- | --- | --- | --- | --- | --- | --- | --- | --- | --- | --- | --- | --- | --- | --- | --- | --- | --- |
| CC(NC(=O)C(Cc1ccc(OC(=O)c2ccccc2)cc1)NC(=O)OC(C)(C)C)C(=O)NCC(=O)NC(Cc1ccccc1)NC(=O)OCc1ccccc1 (stereo not given) | > 100 µM (inactive) | 59.8 µM (inactive) | 62.7 µM (inactive) | > 100 µM (inactive) | > 100 µM (inactive) | > 100 µM (inactive) | > 100 µM (inactive) | > 100 µM (inactive) | > 100 µM (inactive) | 87.5 µM (inactive) | > 100 µM (inactive) | > 100 µM (inactive) | > 100 µM (inactive) | > 100 µM (inactive) | > 100 | > 100 µM (inactive) | > 100 µM (inactive) | > 100 µM (inactive) | > 100 µM (inactive) | – |
| N#Cc1c(-c2ccccc2)c(/N=N/c2ccc(F)cc2)c(=O)n2c1[nH]c1ccccc12 | 3.15 µM (inactive) | 4.43 µM (inactive) | 2.3 µM (inactive) | 2.18 µM (inactive) | 4.51 µM (inactive) | 1.84 µM (inactive) | 13.2 µM (inactive) | 3.66 µM (inactive) | 4.86 µM (inactive) | 3.81 µM (inactive) | 10.9 µM (inactive) | 3.92 µM (inactive) | 2.31 µM (inactive) | 5.21 µM (inactive) | 3.33 | 2.92 µM (inactive) | 5.64 µM (inactive) | 7.6 µM (inactive) | 1.46 µM (inactive) | 3.21 µM (inactive) |
| NS(=O)(=O)c1ccc(NNC(=O)c2cccc3c(=O)c4ccccc4[nH]c23)cc1 | 42.1 µM (inactive) | 72.8 µM (inactive) | 42.2 µM (inactive) | 34.4 µM (inactive) | 34 µM (inactive) | > 100 µM (inactive) | > 100 µM (inactive) | 55.1 µM (inactive) | > 100 µM (inactive) | 49.8 µM (inactive) | > 100 µM (inactive) | > 100 µM (inactive) | 87.7 µM (inactive) | 51.6 µM (inactive) | 62.8 | 66.8 µM (inactive) | 91.6 µM (inactive) | 78.3 µM (inactive) | 35 µM (inactive) | > 100 µM (inactive) |
| COc1ccc(Nc2nc3cc(C(F)(F)F)ccc3nc2C(=O)O)cc1OC | 27.8 µM (inactive) | 52.2 µM (inactive) | 20.1 µM (inactive) | 19 µM (inactive) | 45.2 µM (inactive) | 21.5 µM (inactive) | 62.7 µM (inactive) | 35.8 µM (inactive) | – | 25.1 µM (inactive) | 23.3 µM (inactive) | 27 µM (inactive) | 37.6 µM (inactive) | 29 µM (inactive) | 35.6 | 40.2 µM (inactive) | 26.7 µM (inactive) | 42.9 µM (inactive) | 28.4 µM (inactive) | 29.6 µM (inactive) |
| COc1cc(-c2coc3c(OC)c(OC4OC(CO)C(O)C(O)C4O)c(OC)cc3c2=O)cc(OC)c1C (stereo not given) | 4.79 µM (inactive) | 4.17 µM (inactive) | 5.9 µM (inactive) | 17.7 µM (inactive) | 3.66 µM (inactive) | 4.07 µM (inactive) | 6.22 µM (inactive) | 3.7 µM (inactive) | 7.96 µM (inactive) | 4.35 µM (inactive) | 3.69 µM (inactive) | 14.7 µM (inactive) | 8.75 µM (inactive) | 15.1 µM (inactive) | 3.66 | 7.03 µM (inactive) | 7.55 µM (inactive) | 15.3 µM (inactive) | 4.53 µM (inactive) | 14.2 µM (inactive) |
| CC1=NN=C(N)N/C1=C\C(Sc1ccc(Cl)cc1)c1ccc([N+](=O)[O-])cc1 (stereo not given) | 94 µM (inactive) | > 100 µM (inactive) | 93.5 µM (inactive) | > 100 µM (inactive) | 57.9 µM (inactive) | 81.1 µM (inactive) | – | 66.7 µM (inactive) | > 100 µM (inactive) | > 100 µM (inactive) | – | > 100 µM (inactive) | > 100 µM (inactive) | > 100 µM (inactive) | 94 | > 100 µM (inactive) | 58.9 µM (inactive) | > 100 µM (inactive) | 32.8 µM (inactive) | 91.4 µM (inactive) |
| c1ccc(-c2cc(C3CO3)c3ccccc3n2)cc1 (stereo not given) | 17.5 µM (inactive) | 29.3 µM (inactive) | 23.7 µM (inactive) | 20 µM (inactive) | 16.2 µM (inactive) | 16.3 µM (inactive) | 25.9 µM (inactive) | 16 µM (inactive) | 35 µM (inactive) | 18.3 µM (inactive) | 21.2 µM (inactive) | 22.5 µM (inactive) | 18.8 µM (inactive) | 23.3 µM (inactive) | 19.5 | 19.4 µM (inactive) | 18.4 µM (inactive) | – | 26.9 µM (inactive) | 19.1 µM (inactive) |
| CC1CCc2c(c(CC3CC(=O)NC(=O)C3)nn2-c2ccccc2)C1 (stereo not given) | > 100 µM (inactive) | > 100 µM (inactive) | > 100 µM (inactive) | > 100 µM (inactive) | > 100 µM (inactive) | > 100 µM (inactive) | > 100 µM (inactive) | > 100 µM (inactive) | > 100 µM (inactive) | > 100 µM (inactive) | > 100 µM (inactive) | > 100 µM (inactive) | 99.1 µM (inactive) | > 100 µM (inactive) | > 100 | > 100 µM (inactive) | > 100 µM (inactive) | > 100 µM (inactive) | > 100 µM (inactive) | > 100 µM (inactive) |
| Cc1ccc(C)c(COCCOCn2ccc(N)nc2=O)c1 | > 100 µM (inactive) | > 100 µM (inactive) | > 100 µM (inactive) | > 100 µM (inactive) | > 100 µM (inactive) | > 100 µM (inactive) | > 100 µM (inactive) | > 100 µM (inactive) | > 100 µM (inactive) | > 100 µM (inactive) | > 100 µM (inactive) | > 100 µM (inactive) | > 100 µM (inactive) | > 100 µM (inactive) | > 100 | – | > 100 µM (inactive) | > 100 µM (inactive) | 18.5 µM (inactive) | > 100 µM (inactive) |
| O=c1[nH]nc(-c2ccccc2)n1-c1ccncc1 | > 100 µM (inactive) | > 100 µM (inactive) | > 100 µM (inactive) | > 100 µM (inactive) | > 100 µM (inactive) | > 100 µM (inactive) | > 100 µM (inactive) | > 100 µM (inactive) | – | > 100 µM (inactive) | > 100 µM (inactive) | > 100 µM (inactive) | > 100 µM (inactive) | > 100 µM (inactive) | > 100 | > 100 µM (inactive) | > 100 µM (inactive) | > 100 µM (inactive) | > 100 µM (inactive) | > 100 µM (inactive) |
| CC[C@H]1CN(C)[C@H]2Cc3c([nH]c4ccccc34)C(=O)C[C@H]1C2C(=O)OC (stereo not given in full) | > 100 µM (inactive) | > 100 µM (inactive) | 73.6 µM (inactive) | > 100 µM (inactive) | > 100 µM (inactive) | > 100 µM (inactive) | – | > 100 µM (inactive) | > 100 µM (inactive) | > 100 µM (inactive) | > 100 µM (inactive) | – | > 100 µM (inactive) | > 100 µM (inactive) | > 100 | > 100 µM (inactive) | > 100 µM (inactive) | > 100 µM (inactive) | 68.9 µM (inactive) | > 100 µM (inactive) |
| Cc1ccc(S(N)(C(=O)Nc2cccc3ccccc23)[N+](=O)[O-])cc1 (stereo not given) | > 100 µM (inactive) | > 100 µM (inactive) | 29.5 µM (inactive) | > 100 µM (inactive) | 59.2 µM (inactive) | > 100 µM (inactive) | > 100 µM (inactive) | > 100 µM (inactive) | > 100 µM (inactive) | 58.9 µM (inactive) | – | > 100 µM (inactive) | > 100 µM (inactive) | 36.6 µM (inactive) | > 100 | > 100 µM (inactive) | – | > 100 µM (inactive) | 39.3 µM (inactive) | > 100 µM (inactive) |
| NP(=O)(Oc1c2occc2cc2ccc(=O)oc12)N(CCCl)CCCl (stereo not given) | > 100 µM (inactive) | > 100 µM (inactive) | 28.8 µM (inactive) | 49.1 µM (inactive) | 51.1 µM (inactive) | > 100 µM (inactive) | – | > 100 µM (inactive) | – | 38.5 µM (inactive) | > 100 µM (inactive) | > 100 µM (inactive) | 68.1 µM (inactive) | > 100 µM (inactive) | > 100 | > 100 µM (inactive) | 83.2 µM (inactive) | > 100 µM (inactive) | 70.1 µM (inactive) | > 100 µM (inactive) |
| O=C1C(Cl)=C(N2C(=O)CCC2=O)C(=O)c2ccccc21 | 41.8 µM (inactive) | > 100 µM (inactive) | 50.7 µM (inactive) | 7.83 µM (inactive) | 17.2 µM (inactive) | 17.9 µM (inactive) | > 100 µM (inactive) | 23.9 µM (inactive) | > 100 µM (inactive) | 32 µM (inactive) | 39.8 µM (inactive) | 19.1 µM (inactive) | 53.6 µM (inactive) | 27.5 µM (inactive) | 13.2 | 29 µM (inactive) | 15.7 µM (inactive) | – | 2.51 µM (inactive) | 25.2 µM (inactive) |
| Nc1n[nH]c2nc3ccccc3nc12 [QUINOXALINE1] | – | 39 µM (inactive) | 61.1 µM (inactive) | > 100 µM (inactive) | 61.2 µM (inactive) | > 100 µM (inactive) | 37.1 µM (inactive) | > 100 µM (inactive) | > 100 µM (inactive) | 20 µM (inactive) | 61.7 µM (inactive) | 31.9 µM (inactive) | 84.7 µM (inactive) | > 100 µM (inactive) | 75.2 | 59.6 µM (inactive) | 36 µM (inactive) | > 100 µM (inactive) | 34.8 µM (inactive) | > 100 µM (inactive) |

— ChEMBL document CHEMBL1201862, “PubChem BioAssay data set” (2004)
